According to PubChem BioAssay AID179 (DTP/NCI, 2004):
Several values for one entry are separate records, joined by “and”; a condition that tells them apart may be missing. Equal values may be shown once. Activity calls are given as the source filed them.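 Rule for the calls: active = compounds giving half or more protection of infected cells from virus-caused growth loss, again on retest; inactive = the rest.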

System: CEM cells HIV-1 protection, formazan growth assay
Assay: NCI AIDS Antiviral Assay
Conditions: for IC50: measured here: growth of uninfected CEM cells
Procedure, shortened: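 Screen of anti-HIV-1 activity in human CEM cells using a formazan-based growth measurement at five drug concentrations. Hits with 50% or greater protection were repeated, and confirmation required reproducible complete protection.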

Compound	EC50 [µM]	IC50	outcome
CC1=C[C@@]2(C=C(C(=O)O)[C@@]34CCCC(C)(C)C3C[C@@H]2OC4)OC1=O (some centres undefined)	> 380	> 380 µM	
CN1COc2c(n(C)c(=O)[nH]c2=O)C1	> 200	120 µM	
[pH]1p2[pH]p3p1p3[pH]2.c1cc[c]([Ge]([c]2ccccc2)[c]2ccccc2)cc1.c1cc[c]([Ge]([c]2ccccc2)[c]2ccccc2)cc1.c1cc[c]([Ge]([c]2ccccc2)[c]2ccccc2)cc1			inactive
O=C(C[n+]1ccc2ccccc2c1)c1ccc(O)c(O)c1			inactive
CCC(=O)C12OC3OC(C)(C)OC3C1OC(C)(C)O2 (centres undefined)			inactive
C[C@H](NC(=O)c1ccccc1SC(=O)CCCC[n+]1ccccc1)C(N)=O	0.933	> 100 µM	
CCCCCCCCCCCCCCCC(=O)Nc1ccn(C2CCC(COP(=O)(O)OCC3CCC(n4cnc5c(=O)[nH]cnc54)O3)O2)c(=O)n1 (centres undefined)	0.759	> 100 µM	
CCC(COCC(CC)C(=O)O)C(=O)O (centres undefined)			inactive
CC(C)(C)OC(=O)C1CC[C@@H](CC(=O)Oc2ccc([N+](=O)[O-])cc2)N1 (some centres undefined)	> 200	> 200 µM	
COc1ccc(/C=C/c2ccnc3ccccc23)cc1OC	0.0631	50.1 µM	
CC(C)NC(=O)OCc1c(COC(=O)NC(C)C)c(-c2ccc(Cl)c(Cl)c2)n2c1CS(=O)(=O)C2	> 200	42.7 µM	
NC1=NC(=O)C(c2ccccc2)S1 (centres undefined)	> 676	> 676 µM	
O=C(O)c1[nH]c(=O)[nH]c(=O)c1C(=O)O	> 200	> 200 µM	
CC(C)(C)n1c(=O)n2n(c1=O)C1c3cccc4cccc(c34)C2C2c3cccc4cccc(c34)C1n1c(=O)n(C(C)(C)C)c(=O)n12	> 200	50.1 µM	
Cc1oc2c(c1C(=O)c1ccccc1)C(=O)c1ccccc1C2=O	> 58.9	11.7 µM	
CCOC(=O)C(Cc1ccccc1[N+](=O)[O-])C(=O)OCC	> 200	102 µM	
CC1=C[P+](CCc2ccccc2)(CCc2ccccc2)C=C1C			inactive
C=C1C[C@@H]2O[C@H]3[C@H]4[C@@H](C[C@@H](C)[C@@H](OC(C)=O)[C@H]42)[C@@H](C)CO[C@@]3(C)[C@H](OC(=O)CCCCCCC)C[C@H]1O	> 200	11 µM	
CC1CC/C(=C\c2ccc(Cl)cc2)c2nc(N)c(C#N)c(-c3ccc(Cl)cc3)c21 (centres undefined)	> 200	155 µM	
CC(C)C1=C[C@H](c2ccccc2)c2ccccc2C1C(C#N)(C#N)C(C)C (some centres undefined)	> 1.48	> 1.48 µM	
C#CCN(N=O)C(=O)NCCCCC(NC(C)=O)C(=O)NCc1ccccc1 (centres undefined)	> 646	56.2 µM	
NC(CC(O)(c1ccccc1)c1ccccc1)c1ccccc1S (centres undefined)	> 200		

Compound	EC50 [µM]	IC50	outcome
COC(=O)c1cc(OS(=O)(=O)C(F)(F)F)c(=O)n2c1CCCC2	> 200	89.1 µM	
CCSC(=O)OCn1ncc2cc([N+](=O)[O-])ccc21	> 200	95.5 µM	
CN1C(=O)CSC1=S	> 1700	4.79 µM and 36.3 µM	
CCOC(=O)CC(NC(=O)c1ccc(N=NN(C)C)cc1)C(=O)OCC (centres undefined)	> 186	> 186 µM	
COc1cc(C2(C)SCCCS2)c(I)c(OC)c1OC	> 234	6.17 µM	
Cc1cc(S(=O)(=O)Nc2n[nH]c(=O)n2-c2ccccc2)c(S)cc1Cl	155	> 200 µM	
CCCNC(=O)N(CC(C)C)S(=O)(=O)c1ccc(Cl)cc1			inactive
C=CCN(CCNS(=O)(=O)c1ccc(C)cc1)S(=O)(=O)c1ccc(C)cc1	> 33.1	> 33.1 µM	
COc1cc2c(c(OC)c1OC)-c1ccc(OC)c(=O)cc1C(NC1=C(Cl)C(=O)c3ccccc3C1=O)CC2 (centres undefined)	> 174	0.0562 µM	
O=C([CH-]C(=O)c1ccccc1)c1ccccc1.[CH3-].[CH3-].[CH3-].[Sn+4]	> 35.5	> 35.5 µM	
FC(F)(F)c1nc(Cl)c2ncsc2n1	> 200	2.4 µM	
CCN(CC)C(=S)SS(=O)(=O)c1ccc(N)cc1	> 200	56.2 µM	
C=CCn1c(=N)/c(=C(\N)O)s/c1=C1/SC(=S)N(c2ccc(C)cc2)C1=O	> 6.76	> 6.76 µM	
COc1cc2c(cc1OC)C13CCC(O)CC1=CC2(C)O3 (centres undefined)	> 646	> 646 µM	
COc1ccc(NC(=O)CC(=O)N2N=C(C)C(N=Nc3ccc(C(=O)O)cc3)C2=O)cc1 (centres undefined)	> 200	95.5 µM	
NCC1OC(n2cnc3c(N)ncnc32)CC1O (centres undefined)	> 200	> 200 µM	
N.N.N.N.N.NC(=O)c1nn[n-]n1.[Cl-].[Co+3]	> 759	> 759 µM	
COc1cc(C(=O)Nc2c3ccccc3nc3ccccc23)cc(OC)c1OC	> 200	> 200 µM	
C=C1C(OC(=O)CC(c2ccccc2)N(C)C)C[C@H](OC(C)=O)[C@]2(C)C1C[C@@H]1CC(OC(C)=O)C(C)=C([C@@H](OC(C)=O)C2OC(C)=O)C1(C)C (some centres undefined)			inactive
O=C(O)C(O)(O)C(O)(O)C(=O)O	> 200	> 200 µM	
CC(C)=CCC/C(C)=C/COC(C)(C)C1=CCC(C)CC1 (centres undefined) (tested in a mixture with another compound)	> 200	> 200 µM	
CC1N=C(SCC(=O)c2ccc(Cl)cc2)N2C(C)N=C(SCC(=O)c3ccc(Cl)cc3)N12 (centres undefined)	> 19.5	> 19.5 µM	

Compound	EC50 [µM]	IC50	outcome
O=C1OC(Cc2ccccc2)(N2CCCC2=O)C1c1ccccc1 (centres undefined)	> 112	> 112 µM	
COCc1cn(C2CCC(CO)O2)c(=O)[nH]c1=O (centres undefined)	> 490	269 µM	
Cc1cc(C)n(-c2c(O)ccc(O)c2-n2nc(C)cc2C)n1	> 229	120 µM	
O=C(O)c1ccsc1C(=O)c1ccccc1	> 200	> 200 µM	
O=C1OC(c2ccc(Cl)cc2)(c2ccc(Cl)cc2)c2c1ccc1ccccc21			inactive
CCOC(=O)c1cn2c(n1)sc1cccc(C)c12	> 200	> 200 µM	
Cc1ccc(NC(=O)/C(CC2N=c3c(ccc4c(O)c5ccccc5c(O)c34)=NC2O)=N/NC(C)(C)C)cc1 (centres undefined)	> 10	> 10 µM	
CCC/C(Cl)=N\OC(=O)Nc1cccc(C(F)(F)F)c1	> 200	6.76 µM	
COC(=O)n1c(C)c(C=O)c2ccc(OC)cc21	> 200	34.7 µM	
CCOC(=O)/C(C#N)=C/c1c[nH]c2ccccc12	> 200	158 µM	
Cc1ccc(S(=O)(=O)N/N=C2/CC3CCC4CC2CC34)cc1 (centres undefined)	> 200	79.4 µM	
O=C(OCCN1CCOCC1)C1C[C@@H](O)CN1C(=O)c1ccc2c(c1)OCO2 (some centres undefined)	> 200	> 200 µM	
Cc1ccccc1NC(=S)N=Nc1c(O)[nH]c2ccccc12	> 200	> 200 µM	
CCOc1ccc2c(C)cc(=O)oc2c1	> 66.1	> 66.1 µM	
CCOC(=O)/C(=C\c1cccc(C(F)(F)F)c1)[Se]c1ccccc1	> 18.2	> 18.2 µM	
NC12c3c4cccc3Oc3cccc(c31)Oc1cccc(c12)O4	> 50.1	28.8 µM	
Nc1ncnc2nc(C3OC(CO)C(O)C3O)[nH]c12 (centres undefined)	> 70.8	> 70.8 µM	
NC(Cc1c2ccccc2cc2ccccc12)C(=O)O (centres undefined)	> 200	102 µM	
CC1=NN(C(=O)CC(=O)Nc2ccccc2Cl)C(=O)C1N=Nc1ccc(C(=O)O)cc1 (centres undefined)	> 200	81.3 µM	
Cc1nc2ccccc2c(=O)n1NC(=S)Nc1ccc(Cl)cc1	> 39.8	> 39.8 µM	
CCCCCC=C(c1cc(F)c(OC)c(C(=O)OC)c1)c1cc(F)c(OC)c(C(=O)OC)c1	> 200	115 µM	
CN1C=CC(C(C(N)=O)c2ccccc2)c2ccccc21 (centres undefined)	> 200	178 µM	

Compound	EC50 [µM]	IC50	outcome
Nc1ccc(CCN2CCN(c3cccc(C(F)(F)F)c3)CC2)cc1I			inactive
O=S(O)CCCCSSSCCCCS(=O)O	> 200	2.69 µM	
COc1cc(C(C)O)c[n+](Cc2ccccc2)c1 (centres undefined)	> 302	> 302 µM	
C=C1CC2CC(=O)C(O)C(C1)C2 (centres undefined)	> 200	> 200 µM	
COc1cccc(OC)c1/C=N\N1C(=O)c2ccccc2C1=O	> 115	12 µM	
OC12C3C4CC5C(C4[C@@H]1Br)C2[C@@](O)(c1c(F)c(F)c(F)c(F)c1F)C53 (some centres undefined)	> 200	69.2 µM	
Cn1cc(C=O)c2nccnc21	> 1050	> 1050 µM	
Cc1ccc(C2=C(c3ccccc3)C(O)(c3ccc(C)cc3)C(c3ccccc3)=C2c2ccc(C)cc2)cc1	> 5.13	> 5.13 µM	
O=C(Nc1nccs1)c1cc(C2=CC=CC([N+](=O)[O-])C=C2)nc(=S)[nH]1 (centres undefined)	> 95.5	> 95.5 µM	
CCOC(=O)C(C)NC(=O)N(C)C12CC3CC(CC(C3)C1)C2 (centres undefined)	> 200	151 µM	
O=C(O)c1ccccc1-c1c2ccc(=Nc3ccccc3)cc-2oc2cc(Nc3ccc(S(=O)(=O)O)cc3)ccc12	14.1	> 200 µM	
CCCc1ccc(OC2OC(COC(C)=O)C(OC(C)=O)C(OC(C)=O)C2OC(C)=O)cc1 (centres undefined)	> 95.5	> 95.5 µM	
Nc1nc(Nc2ccc(Cl)c(Cl)c2)nc2nc[nH]c12	> 200	20.9 µM	
CC(=O)OCC1OC(N2C(c3ccccc3)=CC(c3cccs3)C(C#N)=C2S)C(OC(C)=O)C(OC(C)=O)C1OC(C)=O (centres undefined)	81.3	> 200 µM	
CC1=CC(c2ccccc2)n2c(nc3cc4ccccc4cc32)N1 (centres undefined)	> 200	> 200 µM	
CC1(C)CCC(Sc2ccccc2)O1 (centres undefined)			inactive
O=C(O)c1cc(N=Nc2ccc(N=Nc3ccc(S(=O)(=O)O)cc3)cc2)ccc1O			inactive
CCOC(=O)C1=NN(c2ccccc2)C(=O)/C1=C\n1ccc(=O)[nH]c1=S			inactive
CCOC(=O)c1c(SCc2cc(=O)[nH]c(=O)[nH]2)n(-c2ccccc2)c(=S)n(-c2ccccc2)c1=O	191	> 200 µM	
CC1=N/C(=C\c2ccc(/C=C3/N=C(C)OC3=O)cc2)C(=O)O1	> 851	46.8 µM	
